# Measured values reported in patent publication US20080188528A1, “Modulators of C3a receptor and methods of use thereof” (priority 2006, published 2008).
# Structures can show the parent of a compound that is named as a salt.
# Target: T1, human C3a receptor (C3aR) (Homo sapiens, UniProt Q16581)
# T1 construct: expressed in transfected cells
# T1 sequence (Q16581 1-482): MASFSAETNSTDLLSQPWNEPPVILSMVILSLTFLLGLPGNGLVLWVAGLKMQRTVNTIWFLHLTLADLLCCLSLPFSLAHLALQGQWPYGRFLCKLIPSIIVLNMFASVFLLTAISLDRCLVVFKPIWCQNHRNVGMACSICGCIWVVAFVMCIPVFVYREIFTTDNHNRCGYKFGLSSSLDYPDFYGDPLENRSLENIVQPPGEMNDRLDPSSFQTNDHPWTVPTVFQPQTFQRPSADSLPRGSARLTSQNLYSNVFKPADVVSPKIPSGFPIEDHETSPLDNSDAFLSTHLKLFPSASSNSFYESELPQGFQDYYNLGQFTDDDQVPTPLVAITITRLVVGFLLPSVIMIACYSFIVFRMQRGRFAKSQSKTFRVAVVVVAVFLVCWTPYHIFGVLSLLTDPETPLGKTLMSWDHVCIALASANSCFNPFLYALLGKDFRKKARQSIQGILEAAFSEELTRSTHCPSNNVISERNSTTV
# Assay: Inhibition of human [125I]-C3a binding to human C3a receptor (SPA, membranes of HEK293 cells expressing recombinant C3aR)
# Details: 0.1 nM [125I]-C3a, 3 hours at room temperature; Table 6
# In short: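 HEK293 C3aR membranes were pre-coupled to WGA SPA beads and incubated 3 h at room temperature with 0.1 nM [125I]-C3a in HEPES pH 7.4 buffer containing 0.25% BSA and 0.2% CHAPS, DMSO ≤1%. Nonspecific binding was defined with 1 μM unlabeled C3a. IC50 came from nonlinear least-squares fitting.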
row,Compound,IC50
1,"CC(=N)NCCC[C@H](NC(=O)c1cccn(Cc2ccc(C(F)(F)F)cc2)c1=O)C(=O)O [Compound 113, (2S)-5-(ethanimidoylamino)-2-[({2-oxo-1-[4-(trifluoromethyl)benzyl]-1,2-dihydropyridin-3-yl}carbonyl)amino]pentanoic acid•TFA]",500 to 20000 nM
2,"CCCC(=N)NCCC[C@H](NC(=O)c1ccc(C(c2ccccc2)c2ccccc2)s1)C(=O)O [Compound 118, (2S)-5-(butanimidoylamino)-2-({[5-(diphenylmethyl)thiophen-2-yl]carbonyl}amino)pentanoic acid•TFA]",500 to 20000 nM
3,"N=C(NCCC[C@H](NC(=O)c1ccc(C(c2ccccc2)c2ccccc2)s1)C(=O)O)c1ccccn1 [Compound 119, (2S)-2-({[5-(diphenylmethyl)thiophen-2-yl]carbonyl}amino)-5-{[imino(pyridin-2-yl)methyl]amino}pentanoic acid•TFA]",500 to 20000 nM
4,"N=C(NCCC[C@H](NC(=O)c1ccc(C(c2ccccc2)c2ccccc2)s1)C(=O)O)c1ccccc1 [Compound 120, (2S)-2-({[5-(diphenylmethyl)thiophen-2-yl]carbonyl}amino)-5-{[imino(phenyl)methyl]amino}pentanoic acid•TFA]",500 to 20000 nM
5,"N=C(NCCC[C@H](NC(=O)c1ccc(C(c2ccccc2)c2ccccc2)s1)C(=O)O)C1CC1 [Compound 121, (2S)-5-{[cyclopropyl(imino)methyl]amino}-2-({[5-(diphenylmethyl)thiophen-2-yl]carbonyl}amino)pentanoic acid•TFA]",500 to 20000 nM
6,"COc1ccn(C(c2ccccc2)c2ccccc2)c(=O)c1C(=O)N[C@@H](CCCNC(C)=N)C(=O)O [Compound 122, (2S)-2-({[1-(diphenylmethyl)-4-methoxy-2-oxo-1,2-dihydropyridin-3-yl]carbonyl}amino)-5-(ethanimidoylamino)pentanoic acid•TFA]",500 to 20000 nM
7,"CCOC(=O)CC(=N)NCCC[C@H](NC(=O)c1ccc(C(c2ccccc2)c2ccccc2)s1)C(=O)O [Compound 123, (2S)-2-({[5-(diphenylmethyl)thiophen-2-yl]carbonyl}amino)-5-[(3-ethoxy-3-oxopropanimidoyl)amino]pentanoic acid•TFA]",500 to 20000 nM
8,"CC(=N)NCCC[C@H](NC(=O)c1ccc(C(c2ccc(C)cc2)c2ccc(C)cc2)s1)C(=O)O [Compound 124, (2S)-2-[({5-[bis(4-methylphenyl)methyl]thiophen-2-yl}carbonyl)amino]-5-(ethanimidoylamino)pentanoic acid•TFA]",500 to 20000 nM
9,"CC(=N)NCCC[C@H](NC(=O)c1ccc(C(c2ccccc2Cl)c2ccccc2Cl)s1)C(=O)O [Compound 126, (2S)-2-[({5-[bis(2-chlorophenyl)methyl]thiophen-2-yl}carbonyl)amino]-5-(ethanimidoylamino)pentanoic acid•TFA]",500 to 20000 nM
10,"CC(=N)NCCC[C@H](NC(=O)c1ccc(C(c2cccc(C(F)(F)F)c2)c2cccc(C(F)(F)F)c2)s1)C(=O)O [Compound 130, (2S)-2-{[(5-{Bis[3-(trifluoromethyl)phenyl]methyl}thiophen-2-yl)carbonyl]amino}-5-(ethanimidoylamino)pentanoic acid]",500 to 20000 nM
11,"CC(C)C(=N)NCCC[C@H](NC(=O)c1ccc(C(c2ccccc2)c2ccccc2)s1)C(=O)O [Compound 132, (2S)-2-({[5-(diphenylmethyl)thiophen-2-yl]carbonyl}amino)-5-[(2-methylpropanimidoyl)amino]pentanoic acid•TFA]",500 to 20000 nM
12,"N=CNCCC[C@H](NC(=O)c1ccc(C(c2ccccc2)c2ccccc2)s1)C(=O)O [Compound 133, (2S)-2-({[5-(diphenylmethyl)thiophen-2-yl]carbonyl}amino)-5-[(iminomethyl)amino]pentanoic acid•TFA]",50 to 500 nM
13,"CC(=N)Nc1cccc([C@H](NC(=O)c2ccc(C(c3ccccc3)c3ccccc3)s2)C(=O)O)c1 [Compound 134, (2S)-({[5-(Diphenylmethyl)thiophen-2-yl]carbonyl}amino)[3-(ethanimidoylamino)phenyl]ethanoicacid]",500 to 20000 nM
14,"CC(=N)Nc1ccc([C@H](NC(=O)c2ccc(C(c3ccccc3)c3ccccc3)s2)C(=O)O)cc1 [Compound 135, (2S)-({[5-(Diphenylmethyl)thiophen-2-yl]carbonyl}amino)[4-(ethanimidoylamino)phenyl]ethanoicacid]",500 to 20000 nM
15,"C/C(=N\O)NCCC[C@H](NC(=O)c1ccc(C(c2ccccc2)c2ccccc2)s1)C(=O)O [Compound 136, (2S)-2-({[5-(diphenylmethyl)thiophen-2-yl]carbonyl}amino)-5-{[1-(hydroxyamino)ethylidene]amino}pentanoic acid•TFA]",50 to 500 nM

# Results, then the molecule that gave them:
row,IC50,Compound
1,50 to 500 nM,"CC(=N)NCCC[C@H](NC(=O)c1cccn(Cc2cccc(I)c2)c1=O)C(=O)O [Compound 114, (2S)-5-(ethanimidoylamino)-2-({[1-(3-iodobenzyl)-2-oxo-1,2-dihydropyridin-3-yl]carbonyl}amino)pentanoic acid•TFA]"
2,< 50 nM,"CC(=N)NCCC[C@H](NC(=O)c1cccn(Cc2cc(Br)cc(Br)c2)c1=O)C(=O)O [Compound 115, (2S)-2-({[1-(3,5-dibromobenzyl)-2-oxo-1,2-dihydropyridin-3-yl]carbonyl}amino)-5-(ethanimidoylamino)pentanoic acid•TFA]"
3,< 50 nM,"CC(=N)NCCC[C@H](NC(=O)c1cccn(Cc2cc(Cl)cc(Cl)c2)c1=O)C(=O)O [Compound 116, (2S)-2-({[1-(3,5-dichlorobenzyl)-2-oxo-1,2-dihydropyridin-3-yl]carbonyl}amino)-5-(ethanimidoylamino)pentanoic acid•TFA]"
4,50 to 500 nM,"CC(=N)NCCC[C@H](NC(=O)c1cccn(Cc2cc(F)cc(F)c2)c1=O)C(=O)O [Compound 117, (2S)-2-({[1-(3,5-difluorobenzyl)-2-oxo-1,2-dihydropyridin-3-yl]carbonyl}amino)-5-(ethanimidoylamino)pentanoic acid•TFA]"
5,50 to 500 nM,"CC(=N)NCCC[C@H](NC(=O)c1ccc(C(c2ccc(Cl)cc2)c2ccc(Cl)cc2)s1)C(=O)O [Compound 125, (2S)-2-[({5-[bis(4-chlorophenyl)methyl]thiophen-2-yl}carbonyl)amino]-5-(ethanimidoylamino)pentanoic acid•TFA]"
6,50 to 500 nM,CC(=N)NCCC[C@H](NC(=O)c1ccc(C(c2cccs2)c2cccs2)s1)C(=O)O [Compound 127]
7,50 to 500 nM,"CC(=N)NCCC[C@H](NC(=O)c1ccc(C(c2ccc(F)cc2)c2ccc(F)cc2)s1)C(=O)O [Compound 128, (2S)-2-[({5-[bis(4-fluorophenyl)methyl]thiophen-2-yl}carbonyl)amino]-5-(ethanimidoylamino)pentanoic acid•TFA]"
8,50 to 500 nM,"CC(=N)NCCC[C@H](NC(=O)c1ccc(C(c2cccc(F)c2)c2cccc(F)c2)s1)C(=O)O [Compound 129, (2S)-2-[({5-[bis(3-fluorophenyl)methyl]thiophen-2-yl}carbonyl)amino]-5-(ethanimidoylamino)pentanoic acid•TFA]"
9,< 50 nM,"CC(=N)NCCC[C@H](NC(=O)c1ccc(C(c2cccc(Cl)c2)c2cccc(Cl)c2)s1)C(=O)O [Compound 131, (2S)-2-[({5-[bis(3-chlorophenyl)methyl]thiophen-2-yl}carbonyl)amino]-5-(ethanimidoylamino)pentanoic acid•TFA]"

# Tested on: not given
# Assay: not given
# Details: asthma model; cited from earlier work
row,Compound,airway inflammation
1,NC(N)=NCCC[C@H](NC(=O)COCC(c1ccccc1)c1ccccc1)C(=O)O [SB-290157],reduction of airway inflammation

# Same assay, conditions: in vivo; cited from earlier work
Compound,neutrophil recruitment,paw edema
NC(N)=NCCC[C@H](NC(=O)COCC(c1ccccc1)c1ccccc1)C(=O)O [SB-290157],inhibition of neutrophil recruitment,decreased paw edema
